The text below walks through data of paper PMC10205660 (Chemistry (Weinheim an der Bergstrasse, Germany), 2023).

Holding throughout (format): cell-based
For one experiment, the system named is A549 (lung cancer). In words: Antiproliferative activity, A549. The conditions noted are these: Homo sapiens.
For a further experiment, the system named is K562 (leukemia). In words: Antiproliferative activity, K562.
Another experiment concerns MCF7 (breast cancer). Description: Antiproliferative activity, MCF7.
The subject of experiment [1] is MCF7, K562 and A549 cell lines. Description: Antiproliferative activity, statements in text without a single cell line. Particulars: at 4 μM.
Where [2] appears, read: A549, read-out: IC50 values A549.
Where [3] appears, read: Homo sapiens, K562, read-out: IC50 values K562.
Where [4] appears, read: Homo sapiens, MCF7, read-out: IC50 values MCF7.
Where [5] appears, read: Homo sapiens, K562, read-out: IC50 values K562, K562.
Where [6] appears, read: Homo sapiens, MCF7, read-out: IC50 values MCF7, MCF7.

Where two headings read alike, the source gives them in different places.

For the molecule `CCC[C@H](O)[C@@H](C)C(=O)NC/C=C\C[C@@H](C)[C@@H](O)[C@H](C)[C@@H]1C/C=C\C[C@H](C)C(=O)Cc2cc(OC)cc(O)c2C(=O)O1` [Compound 2, (2R,3S)-3-hydroxy-N-((5R,6R,7S,Z)-6-hydroxy-7-((3S,8S,Z)-14-hydroxy-12-methoxy-8-methyl-1,9-dioxo-3,4,7,8,9,10-hexahydro-1H-benzo[c][1]oxacyclododecin-3-yl)-5-methyloct-2-en-1-yl)-2-methylhexanamide], the values for the IC50 in the experiment with A549 (lung cancer) (setting [2]), in the experiment on K562 (leukemia) (setting [3]) and with MCF7 (breast cancer) (setting [4]) were 1640 nM, 1280 nM and 972 nM, respectively.

For the molecule `CCC[C@H](O)[C@@H](C)C(=O)NC/C=C\C[C@@H](C)[C@@H](O)[C@H](C)[C@@H]1C/C=C\C[C@H](C)[C@H](OC(=O)CN)Cc2cc(OC)cc(O)c2C(=O)O1` [Compound 3, (3S,8S,9R,Z)-14-hydroxy-3-((2S,3R,4R,Z)-3-hydroxy-8-((2R,3S)-3-hydroxy-2-methylhexanamido)-4-methyloct-6-en-2-yl)-12-methoxy-8-methyl-1-oxo-3,4,7,8,9,10-hexahydro-1H-benzo[c][1]oxacyclododecin-9-yl glycinate], the IC50 was found to be 1740 nM with A549 (lung cancer) (setting [2]), 14.8 nM in the experiment with K562 (leukemia) (setting [3]) and 87.5 nM in the experiment with MCF7 (breast cancer) (setting [4]). In addition, the “fold difference of IC50 versus cruentaren A” value with K562 (leukemia) (K562, versus cruentaren A) was 10 fold.

`CCC[C@H](O)[C@@H](C)C(=O)NC/C=C\C[C@@H](C)[C@@H](O)[C@H](C)[C@@H]1C/C=C\C[C@H](C)[C@H](OC(=O)[C@H](N)C(C)C)Cc2cc(OC)cc(O)c2C(=O)O1` [Compound 5, (3S,8S,9R,Z)-14-hydroxy-3-((2S,3R,4R,Z)-3-hydroxy-8-((2R,3S)-3-hydroxy-2-methylhexanamido)-4-methyloct-6-en-2-yl)-12-methoxy-8-methyl-1-oxo-3,4,7,8,9,10-hexahydro-1H-benzo[c][1]oxacyclododecin-9-yl D-valinate]: the half-maximal inhibitory concentration (IC50) with A549 (lung cancer) (setting [2]) was 1330 nM; in the experiment on K562 (leukemia) (setting [5]) it was 968 nM; with MCF7 (breast cancer) (setting [6]) it was 101 nM.

Consider `CCC[C@H](O)[C@@H](C)C(=O)NC/C=C\C[C@@H](C)[C@@H](O)[C@H](C)[C@@H]1C/C=C\C[C@H](C)[C@H](OC(=O)[C@H](N)Cc2ccccc2)Cc2cc(OC)cc(O)c2C(=O)O1` [Compound 6, (3S,8S,9R,Z)-14-hydroxy-3-((2S,3R,4R,Z)-3-hydroxy-8-((2R,3S)-3-hydroxy-2-methylhexanamido)-4-methyloct-6-en-2-yl)-12-methoxy-8-methyl-1-oxo-3,4,7,8,9,10-hexahydro-1H-benzo[c][1]oxacyclododecin-9-yl D-phenylalaninate], for which the 50% inhibitory concentration (IC50) in the experiment on A549 (lung cancer) (setting [2]) amounted to 1280 nM; in the experiment with K562 (leukemia) (setting [5]), 1120 nM; in the experiment with MCF7 (breast cancer) (setting [6]), 114 nM.

On to `CCC[C@H](OC(=O)[C@H](N)Cc1ccccc1)[C@@H](C)C(=O)NC/C=C\C[C@@H](C)[C@@H](O)[C@H](C)[C@@H]1C/C=C\C[C@H](C)[C@H](OC(=O)[C@H](N)Cc2ccccc2)Cc2cc(OC)cc(O)c2C(=O)O1` [Compound 7, (2R,3S)-1-(((5R,6R,7S,Z)-7-((3S,8S,9R,Z)-9-((D-phenylalanyl)oxy)-14-hydroxy-12-methoxy-8-methyl-1-oxo-3,4,7,8,9,10-hexahydro-1H-benzo[c][1]oxacyclododecin-3-yl)-6-hydroxy-5-methyloct-2-en-1-yl)amino)-2-methyl-1-oxohexan-3-yl D-phenylalaninate], for which the concentration for half-maximal inhibition (IC50) in the experiment on A549 (lung cancer) (setting [2]) came out at 2460 nM; with K562 (leukemia) (setting [5]), 65 nM; in the experiment with K562 (leukemia) (read-out: IC50 values K562, K562), 64.6 nM; in the experiment on MCF7 (breast cancer) (setting [6]), 51 nM; in the experiment on MCF7 (breast cancer) (read-out: IC50 values MCF7, MCF7), 51.3 nM.

On to `CCC[C@H](OC(C)=O)[C@@H](C)C(=O)NC/C=C\C[C@@H](C)[C@@H](O)[C@H](C)[C@@H]1C/C=C\C[C@H](C)[C@H](OC(C)=O)Cc2cc(OC)cc(O)c2C(=O)O1` [Compound 8, (2R,3S)-1-(((5R,6R,7S,Z)-7-((3S,8S,9R,Z)-9-acetoxy-14-hydroxy-12-methoxy-8-methyl-1-oxo-3,4,7,8,9,10-hexahydro-1H-benzo[c][1]oxacyclododecin-3-yl)-6-hydroxy-5-methyloct-2-en-1-yl)amino)-2-methyl-1-oxohexan-3-yl acetate], for which the results for the IC50 in the experiment with A549 (lung cancer) (setting [2]), in the experiment on K562 (leukemia) (setting [3]) and with MCF7 (breast cancer) (setting [4]) were 3360 nM, 1280 nM and 574 nM, respectively.

For the molecule `CCC[C@H](OC(C)=O)[C@@H](C)C(=O)NC/C=C\C[C@@H](C)[C@@H](OC(C)=O)[C@H](C)[C@@H]1C/C=C\C[C@H](C)[C@H](OC(C)=O)Cc2cc(OC)cc(O)c2C(=O)O1` [Compound 9, (2R,3R,4R,Z)-2-((3S,8S,9R,Z)-9-acetoxy-14-hydroxy-12-methoxy-8-methyl-1-oxo-3,4,7,8,9,10-hexahydro-1H-benzo[c][1]oxacyclododecin-3-yl)-8-((2R,3S)-3-acetoxy-2-methylhexanamido)-4-methyloct-6-en-3-yl acetate], the IC50 in the experiment with A549 (lung cancer) (setting [2]), in the experiment with K562 (leukemia) (setting [3]) and in the experiment with MCF7 (breast cancer) (setting [4]) was above 4000 nM in each case. Further, the “antiproliferative activity at highest concentration” value in experiment [1] was “inactive”.

Take `CCC[C@H](O)[C@@H](C)C(=O)NC/C=C\C[C@@H](C)[C@@H](O)[C@H](C)[C@@H]1C/C=C\C[C@H](C)[C@H](OC(C)=O)Cc2cc(OC)cc(O)c2C(=O)O1` [Compound 10, (3S,8S,9R,Z)-14-hydroxy-3-((2S,3R,4R,Z)-3-hydroxy-8-((2R,3S)-3-hydroxy-2-methylhexanamido)-4-methyloct-6-en-2-yl)-12-methoxy-8-methyl-1-oxo-3,4,7,8,9,10-hexahydro-1H-benzo[c][1]oxacyclododecin-9-yl acetate]: the IC50 came to 1960 nM with A549 (lung cancer) (A549, read-out: IC50 A549); 1960 nM in the experiment on A549 (lung cancer) (setting [2]); 1160 nM in the experiment on K562 (leukemia) (Homo sapiens, K562, read-out: IC50 K562, K562); 1160 nM in the experiment on K562 (leukemia) (setting [5]); 170 nM in the experiment on MCF7 (breast cancer) (Homo sapiens, MCF7, read-out: IC50 MCF7, MCF7); 174 nM with MCF7 (breast cancer) (setting [6]).

With `CCC[C@H](O)[C@@H](C)C(=O)NC/C=C\C[C@@H](C)[C@@H](OC(C)=O)[C@H](C)[C@@H]1C/C=C\C[C@H](C)[C@H](OC(C)=O)Cc2cc(OC)cc(O)c2C(=O)O1` [Compound 11, (2R,3R,4R,Z)-2-((3S,8S,9R,Z)-9-acetoxy-14-hydroxy-12-methoxy-8-methyl-1-oxo-3,4,7,8,9,10-hexahydro-1H-benzo[c][1]oxacyclododecin-3-yl)-8-((2R,3S)-3-hydroxy-2-methylhexanamido)-4-methyloct-6-en-3-yl acetate], the half-maximal inhibitory concentration (IC50) in the experiment on A549 (lung cancer) (setting [2]), in the experiment on K562 (leukemia) (setting [3]) and in the experiment with MCF7 (breast cancer) (setting [4]) was above 4000 nM in each case. Also, the “antiproliferative activity at highest concentration” value in experiment [1] was “inactive”.

For `CCC[C@H](O)[C@@H](C)C(=O)NCCCC[C@@H](C)[C@@H](O)[C@H](C)[C@@H]1CCCC[C@H](C)[C@H](O)Cc2cc(OC)cc(O)c2C(=O)O1` [Compound 12, (2R,3S)-N-((5R,6R,7S)-7-((3S,8S,9R)-9,14-dihydroxy-12-methoxy-8-methyl-1-oxo-3,4,5,6,7,8,9,10-octahydro-1H-benzo[c][1]oxacyclododecin-3-yl)-6-hydroxy-5-methyloctyl)-3-hydroxy-2-methylhexanamide], the IC50 in the experiment with A549 (lung cancer) (setting [2]) stood at 4000 nM; with K562 (leukemia) (setting [5]) it was 1390 nM; with MCF7 (breast cancer) (setting [6]) it was 179 nM.

For orientation: IC50 means the concentration at which inhibition is half-maximal.
